Activity calls are given as the source filed them. The calls are words filed in the database; no cut-off is given here.
What was measured:
Rattus norvegicus [1] = assay: Antifibrotic activity in bleomycin-induced Sprague-Dawley rat pulmonary fibrosis model assessed as decrease in number of lung foci at 5 mg/kg, ip administered daily for 28 days by H&E staining based histopathological analysis; format: functional, organism-based; details: time 28.0 day
[2] = Volume of distribution at steady state in Sprague-Dawley rat at 5 mg/kg, iv; format: ADME, organism-based; details: in vivo, read-out: Vdss
HLF [3] = assay: Antifibrotic activity in TGF-beta induced HLF cell assessed as suppression of alpha-SMA level incubated for 48 hrs by Western blot analysis; format: functional, cell-based; details: Homo sapiens, DDE = dose-dependent effect
[4] = biological target: High affinity cGMP-specific 3',5'-cyclic phosphodiesterase 9A (Homo sapiens, UniProt O76083); assay: Inhibition of PDE9A2 (181 to 506 residues) (unknown origin) expressed in Escherichia coli BL21 using [3H]-cGMP as substrate measured for 15 mins by liquid scintillation counter method
Rattus norvegicus [5] = assay: Antifibrotic activity in bleomycin-induced Sprague-Dawley rat pulmonary fibrosis model assessed as smaller lung foci at 5 mg/kg, ip administered daily for 28 days by H&E staining based histopathological analysis; format: functional, organism-based; details: time 28.0 day
Rattus norvegicus [6] = assay: Antifibrotic activity in bleomycin-induced Sprague-Dawley rat pulmonary fibrosis model assessed as increase in respiratory rate at 150 mg/kg, po administered daily for 28 days; format: functional, organism-based; details: time 28.0 day
[7] = biological target: T1, cGMP-inhibited 3',5'-cyclic phosphodiesterase 3A (Homo sapiens, UniProt Q14432); assay: Inhibition of PDE3A (679 to 1087 residues) (unknown origin) expressed in Escherichia coli BL21 using [3H]-cAMP as substrate at 10000 nM measured for 15 mins by liquid scintillation counter method
T1 sequence (Q14432 whole entry, the tested form may be a part): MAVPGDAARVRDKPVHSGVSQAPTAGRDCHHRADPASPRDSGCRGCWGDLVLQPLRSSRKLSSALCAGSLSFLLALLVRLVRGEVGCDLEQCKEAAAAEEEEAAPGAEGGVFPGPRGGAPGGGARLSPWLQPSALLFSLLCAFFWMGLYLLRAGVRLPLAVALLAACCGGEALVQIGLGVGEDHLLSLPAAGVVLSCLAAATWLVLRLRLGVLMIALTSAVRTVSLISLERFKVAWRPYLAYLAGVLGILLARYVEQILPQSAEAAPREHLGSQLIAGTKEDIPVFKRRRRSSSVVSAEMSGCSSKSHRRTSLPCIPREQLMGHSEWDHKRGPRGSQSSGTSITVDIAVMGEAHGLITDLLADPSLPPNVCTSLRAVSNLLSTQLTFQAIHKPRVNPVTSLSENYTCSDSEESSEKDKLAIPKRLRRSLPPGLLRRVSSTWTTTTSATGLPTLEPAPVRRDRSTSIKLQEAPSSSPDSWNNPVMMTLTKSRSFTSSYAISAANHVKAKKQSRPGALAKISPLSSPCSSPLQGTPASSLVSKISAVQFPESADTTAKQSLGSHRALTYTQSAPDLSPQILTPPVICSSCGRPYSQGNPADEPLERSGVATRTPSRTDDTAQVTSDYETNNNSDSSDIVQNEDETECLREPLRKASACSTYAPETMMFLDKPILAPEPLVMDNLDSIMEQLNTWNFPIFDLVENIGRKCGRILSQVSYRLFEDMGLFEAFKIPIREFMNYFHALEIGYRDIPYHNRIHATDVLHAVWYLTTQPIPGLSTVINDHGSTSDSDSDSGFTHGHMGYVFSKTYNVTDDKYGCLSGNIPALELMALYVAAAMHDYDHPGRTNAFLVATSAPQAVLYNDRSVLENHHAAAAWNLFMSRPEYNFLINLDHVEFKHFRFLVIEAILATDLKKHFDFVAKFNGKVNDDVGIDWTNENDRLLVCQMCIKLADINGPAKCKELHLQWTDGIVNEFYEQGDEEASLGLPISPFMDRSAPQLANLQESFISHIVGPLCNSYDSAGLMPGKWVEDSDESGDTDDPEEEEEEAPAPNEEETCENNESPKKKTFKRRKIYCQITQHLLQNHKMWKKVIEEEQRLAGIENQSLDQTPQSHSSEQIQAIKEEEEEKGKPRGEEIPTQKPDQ

[8] = biological target: Voltage-gated inwardly rectifying potassium channel KCNH2 (Homo sapiens, UniProt Q12809); assay: Inhibition of hERG ion channel expressed in CHO cells by automated patch clamp electrophysiology method; format: toxicity, cell-based
[9] = Cmax in Sprague-Dawley rat at 5 mg/kg, iv; format: ADME, organism-based; parameters: dose 5 mg/kg, route iv; details: in vivo
[10] = MRT (0 to t) in Sprague-Dawley rat at 5 mg/kg, iv; format: ADME, organism-based; details: in vivo
HLF [11] = assay: Antifibrotic activity in TGF-beta induced HLF cell assessed as suppression of alpha-SMA level at 10 uM incubated for 48 hrs by Western blot analysis; format: functional, cell-based; details: Homo sapiens
Rattus norvegicus [12] = assay: Antifibrotic activity in bleomycin-induced Sprague-Dawley rat lung fibrosis model assessed as suppression of TGF-beta1 level at 2.5 to 5 mg/kg, ip administered daily for 28 days by Western blot analysis; format: functional, organism-based; details: dose 2.5-5 mg/kg, time 28.0 day
[13] = biological target: 3',5'-cyclic-AMP phosphodiesterase 4B (Homo sapiens, UniProt Q07343); assay: Inhibition of PDE4B2 (152 to 487 residues) (unknown origin) expressed in Escherichia coli BL21 measured for 15 mins by liquid scintillation counter method
Sequence of 3',5'-cyclic-AMP phosphodiesterase 4B (Q07343 whole entry, the tested form may be a part): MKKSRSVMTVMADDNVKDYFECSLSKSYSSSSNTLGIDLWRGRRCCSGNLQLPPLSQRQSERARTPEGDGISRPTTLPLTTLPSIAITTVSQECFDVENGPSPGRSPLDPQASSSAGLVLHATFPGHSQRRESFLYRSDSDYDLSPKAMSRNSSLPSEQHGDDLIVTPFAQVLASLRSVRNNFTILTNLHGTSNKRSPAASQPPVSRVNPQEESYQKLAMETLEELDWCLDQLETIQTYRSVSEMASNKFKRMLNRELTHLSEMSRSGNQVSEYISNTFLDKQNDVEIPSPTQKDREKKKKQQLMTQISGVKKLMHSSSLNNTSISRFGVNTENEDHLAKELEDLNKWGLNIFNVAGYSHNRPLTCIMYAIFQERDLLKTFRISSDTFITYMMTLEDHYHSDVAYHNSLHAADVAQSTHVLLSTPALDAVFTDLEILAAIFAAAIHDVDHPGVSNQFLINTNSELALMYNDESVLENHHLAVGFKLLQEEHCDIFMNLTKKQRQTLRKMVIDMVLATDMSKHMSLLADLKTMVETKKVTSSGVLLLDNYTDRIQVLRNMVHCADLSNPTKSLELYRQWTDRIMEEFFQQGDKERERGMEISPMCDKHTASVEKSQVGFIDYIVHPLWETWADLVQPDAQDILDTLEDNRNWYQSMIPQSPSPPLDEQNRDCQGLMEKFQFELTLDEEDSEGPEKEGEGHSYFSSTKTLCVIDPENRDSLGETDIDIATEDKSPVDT

[14] = biological target: T1, cGMP-inhibited 3',5'-cyclic phosphodiesterase 3A; assay: Inhibition of PDE3A (679 to 1087 residues) (unknown origin) expressed in Escherichia coli BL21 using [3H]-cAMP as substrate measured for 15 mins by liquid scintillation counter method
HLF [15] = assay: Antifibrotic activity in TGF-beta induced HLF cell assessed as decrease in FN level at 10 to 20 uM incubated for 48 hrs by DAPI staining based immunofluorescence microscopic analysis; format: functional; details: Homo sapiens, dose 10-20 µM
Rattus norvegicus [16] = assay: Antifibrotic activity in bleomycin-induced Sprague-Dawley rat lung fibrosis model assessed as decrease in collagen deposition at 2.5 to 5 mg/kg, ip administered daily for 28 days by Masson's trichrome staining based analysis; format: functional, organism-based; details: dose 2.5-5 mg/kg, time 28.0 day
HLF [17] = assay: Antifibrotic activity in TGF-beta induced HLF cell assessed as suppression of Col-I level at 10 uM incubated for 48 hrs by Western blot analysis; format: functional, cell-based; details: Homo sapiens
Rattus norvegicus [18] = assay: Antifibrotic activity in bleomycin-induced Sprague-Dawley rat pulmonary fibrosis model assessed as decrease in enhanced pause at 150 mg/kg, po administered daily for 28 days; format: functional, organism-based; details: time 28.0 day
[19] = biological target: cAMP and cAMP-inhibited cGMP 3',5'-cyclic phosphodiesterase 10A (Homo sapiens, UniProt Q9Y233); assay: Inhibition of PDE10A (449 to 770 residues) (unknown origin) expressed in Escherichia coli BL21 using [3H]-cAMP as substrate measured for 15 mins by liquid scintillation counter method
Sequence of cAMP and cAMP-inhibited cGMP 3',5'-cyclic phosphodiesterase 10A (Q9Y233 whole entry, the tested form may be a part): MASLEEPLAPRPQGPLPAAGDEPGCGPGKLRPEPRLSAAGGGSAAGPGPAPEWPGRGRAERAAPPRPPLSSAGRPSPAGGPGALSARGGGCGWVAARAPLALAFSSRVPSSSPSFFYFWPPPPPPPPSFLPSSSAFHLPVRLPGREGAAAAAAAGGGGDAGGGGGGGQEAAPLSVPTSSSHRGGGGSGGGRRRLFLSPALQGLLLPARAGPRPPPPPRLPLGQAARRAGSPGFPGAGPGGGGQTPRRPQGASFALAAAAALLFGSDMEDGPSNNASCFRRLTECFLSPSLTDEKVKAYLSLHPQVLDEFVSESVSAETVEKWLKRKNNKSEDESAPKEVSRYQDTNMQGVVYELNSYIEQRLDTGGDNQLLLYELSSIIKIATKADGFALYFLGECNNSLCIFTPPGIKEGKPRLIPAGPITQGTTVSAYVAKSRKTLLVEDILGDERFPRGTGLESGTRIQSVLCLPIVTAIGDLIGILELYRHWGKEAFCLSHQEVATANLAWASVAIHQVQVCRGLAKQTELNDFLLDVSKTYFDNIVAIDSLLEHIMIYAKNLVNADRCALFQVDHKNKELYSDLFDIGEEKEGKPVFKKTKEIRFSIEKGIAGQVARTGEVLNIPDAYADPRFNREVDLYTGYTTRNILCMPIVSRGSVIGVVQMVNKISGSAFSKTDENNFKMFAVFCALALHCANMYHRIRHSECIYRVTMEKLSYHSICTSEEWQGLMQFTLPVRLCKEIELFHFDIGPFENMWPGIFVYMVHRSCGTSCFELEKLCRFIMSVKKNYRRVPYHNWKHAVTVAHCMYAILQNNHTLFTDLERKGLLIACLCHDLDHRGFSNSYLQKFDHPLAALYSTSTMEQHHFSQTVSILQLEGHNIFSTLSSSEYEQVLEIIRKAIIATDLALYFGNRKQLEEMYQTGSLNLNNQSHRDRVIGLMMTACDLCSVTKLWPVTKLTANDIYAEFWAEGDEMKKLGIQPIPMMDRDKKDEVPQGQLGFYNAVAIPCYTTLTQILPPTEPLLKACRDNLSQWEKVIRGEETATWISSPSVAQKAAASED

[20] = biological target: cGMP-specific 3',5'-cyclic phosphodiesterase (Homo sapiens, UniProt O76074); assay: Inhibition of PDE5A1 (535 to 860 residues) (unknown origin) expressed in Escherichia coli BL21 [3H]-cGMP as substrate measured for 15 mins by liquid scintillation counter method
[21] = biological target: cGMP-dependent 3',5'-cyclic phosphodiesterase (Homo sapiens, UniProt O00408); assay: Inhibition of PDE2A (580 to 919 residues) (unknown origin) expressed in Escherichia coli BL21 using [3H]-cGMP as substrate measured for 15 mins by liquid scintillation counter method
Sequence of cGMP-dependent 3',5'-cyclic phosphodiesterase (O00408 whole entry, the tested form may be a part): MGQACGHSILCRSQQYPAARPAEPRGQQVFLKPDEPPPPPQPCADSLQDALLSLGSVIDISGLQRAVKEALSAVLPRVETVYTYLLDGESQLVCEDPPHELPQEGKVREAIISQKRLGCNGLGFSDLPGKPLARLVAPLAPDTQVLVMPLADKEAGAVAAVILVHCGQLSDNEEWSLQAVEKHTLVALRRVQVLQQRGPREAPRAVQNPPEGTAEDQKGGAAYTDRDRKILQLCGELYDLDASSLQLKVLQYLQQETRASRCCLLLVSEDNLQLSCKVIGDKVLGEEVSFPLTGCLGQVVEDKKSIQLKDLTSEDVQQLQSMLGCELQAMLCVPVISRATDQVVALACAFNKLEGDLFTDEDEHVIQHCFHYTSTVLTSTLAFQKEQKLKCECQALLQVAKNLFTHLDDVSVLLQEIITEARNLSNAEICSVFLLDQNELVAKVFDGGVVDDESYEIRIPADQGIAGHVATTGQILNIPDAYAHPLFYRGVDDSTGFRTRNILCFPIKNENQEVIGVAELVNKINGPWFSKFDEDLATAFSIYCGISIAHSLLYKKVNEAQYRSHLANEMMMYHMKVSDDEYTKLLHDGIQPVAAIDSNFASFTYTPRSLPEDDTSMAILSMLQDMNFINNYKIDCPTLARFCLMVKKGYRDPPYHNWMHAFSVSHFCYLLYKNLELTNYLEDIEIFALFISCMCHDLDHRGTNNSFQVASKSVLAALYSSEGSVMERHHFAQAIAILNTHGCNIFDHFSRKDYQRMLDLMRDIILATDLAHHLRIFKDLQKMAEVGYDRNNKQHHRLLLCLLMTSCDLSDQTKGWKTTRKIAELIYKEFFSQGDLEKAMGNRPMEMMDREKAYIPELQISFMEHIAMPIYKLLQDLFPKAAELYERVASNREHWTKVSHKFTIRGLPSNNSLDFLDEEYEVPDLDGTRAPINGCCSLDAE

[22] = Clearance in Sprague-Dawley rat at 5 mg/kg, iv; format: ADME, organism-based; details: in vivo
Rattus norvegicus [23] = assay: Antifibrotic activity in bleomycin-induced Sprague-Dawley rat pulmonary fibrosis model assessed as decrease in end-expiratory pause at 150 mg/kg, po administered daily for 28 days; format: functional, organism-based; details: time 28.0 day
Rattus norvegicus [24] = assay: Antifibrotic activity in bleomycin-induced Sprague-Dawley rat lung fibrosis model assessed as increase in cGMP level at 2.5 to 5 mg/kg, ip administered daily for 28 days by ELISA analysis; format: functional, organism-based; details: dose 2.5-5 mg/kg, time 28.0 day
[25] = biological target: High affinity cAMP-specific and IBMX-insensitive 3',5'-cyclic phosphodiesterase 8A (Homo sapiens, UniProt O60658); assay: Inhibition of PDE8A (480 to 820 residues) (unknown origin) expressed in Escherichia coli BL21 using [3H]-cAMP as substrate at 10000 nM measured for 15 mins by liquid scintillation counter method
Sequence of High affinity cAMP-specific and IBMX-insensitive 3',5'-cyclic phosphodiesterase 8A (O60658 whole entry, the tested form may be a part): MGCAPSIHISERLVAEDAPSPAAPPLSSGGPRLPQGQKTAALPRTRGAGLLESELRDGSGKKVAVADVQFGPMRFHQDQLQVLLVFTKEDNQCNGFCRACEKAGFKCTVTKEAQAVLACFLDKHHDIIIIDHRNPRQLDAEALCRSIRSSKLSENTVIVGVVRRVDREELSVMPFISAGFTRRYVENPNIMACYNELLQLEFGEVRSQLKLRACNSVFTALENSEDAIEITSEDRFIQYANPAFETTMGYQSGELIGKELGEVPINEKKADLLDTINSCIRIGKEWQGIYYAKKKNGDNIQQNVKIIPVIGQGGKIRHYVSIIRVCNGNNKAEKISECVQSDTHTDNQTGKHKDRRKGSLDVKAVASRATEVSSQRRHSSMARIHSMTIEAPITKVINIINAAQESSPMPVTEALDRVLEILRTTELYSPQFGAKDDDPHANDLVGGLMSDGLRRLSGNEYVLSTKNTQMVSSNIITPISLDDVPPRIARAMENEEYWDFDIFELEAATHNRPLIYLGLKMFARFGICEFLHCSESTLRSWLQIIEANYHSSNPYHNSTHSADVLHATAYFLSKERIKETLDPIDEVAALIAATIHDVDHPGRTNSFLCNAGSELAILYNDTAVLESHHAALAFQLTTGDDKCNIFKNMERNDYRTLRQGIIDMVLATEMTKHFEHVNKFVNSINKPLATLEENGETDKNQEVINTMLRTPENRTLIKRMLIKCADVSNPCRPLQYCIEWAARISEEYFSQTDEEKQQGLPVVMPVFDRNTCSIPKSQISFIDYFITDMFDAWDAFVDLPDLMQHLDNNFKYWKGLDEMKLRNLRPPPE

Rattus norvegicus [26] = assay: Antifibrotic activity in bleomycin-induced Sprague-Dawley rat lung fibrosis model assessed as decrease in lung fibrosis at 2.5 to 5 mg/kg, ip administered daily for 28 days by Masson's trichrome staining based analysis; format: functional, organism-based; details: dose 2.5-5 mg/kg, time 28.0 day

In the case of `CC1=C(C(=O)O[C@H](C)c2ccccc2)C(c2ccc3c(cnn3C)c2)C(C(=O)O[C@H](C)c2ccccc2)=C(C)N1`, the Activity (Rattus norvegicus [1]) is reported as “Active”, the Vd [2] is reported as 3.81 L/kg and the Activity (HLF [3]) is reported as “Dde”. For the same molecule, the IC50 [4] was over 10000 nM, the Activity (Rattus norvegicus [5]) was “Active” and the Activity (Rattus norvegicus [6]) was “Active”. The inhibition [7] was under 50%, the IC50 [8] was over 40000 nM and the Cmax [9] was 2830 ng/mL. For the same molecule, the MRT last [10] was 3.44 h, the Activity (HLF [11]) was “Active” and the Activity (Rattus norvegicus [12]) was “Active”. The IC50 [13] was 619 nM, the IC50 [14] was over 10000 nM and the Activity (HLF [15]) was “Active”. For the same molecule, the Activity (Rattus norvegicus [16]) was “Active”, the Activity (HLF [17]) was “Active” and the Activity (Rattus norvegicus [18]) was “Active”. The IC50 [19] was 1310 nM, the IC50 [20] was 1810 nM and the IC50 [21] was 5130 nM. The clearance [22] was 18.4 mL/min/kg, the Activity (Rattus norvegicus [23]) was “Active” and the Activity (Rattus norvegicus [24]) was “Active”. For the same molecule, the inhibition [25] was under 50% and the Activity (Rattus norvegicus [26]) was “Active”.

From ChEMBL document CHEMBL5154941, “Structural Modifications of Nimodipine Lead to Novel PDE1 Inhibitors with Anti-pulmonary Fibrosis Effects” (J Med Chem, 2022)
